According to publication PMC4176448 (The Journal of Infectious Diseases, 2014):

Test system: influenza B virus
Parameters: species or system human (patient)
Conditions: human, in vivo, po

**Q.** How did the “NPAs tested for influenza B virus after oseltamivir treatment” value turn out when `CCOC(=O)C1=C[C@@H](OC(CC)CC)[C@H](NC(C)=O)[C@@H](N)C1` [Oseltamivir, oseltamivir] was run?
**A.** Its value is “still positive”.
